Laboratory results reported in patent US7271158B2, “Treatment of rumen acidosis with α-amylase inhibitors” (Pfizer Inc., priority 2000, dated 2007).

Columns and labels:
[1] = system: bacterial glucosidase activity from bovine rumen fluid cell suspension; assay: Rumen fluid glucosidase assay; assay type: biochemical, bovine rumen bacteria; details: rumen fluid glucosidase screen, maltose substrate
Description: Rumen Fluid Glucosidase Assay Protocol This assay is used to determine IC50 values for inhibitors of bacterial glucosidase activity from bovine rumen fluid cell suspension (RFCS) using a colorimetric assay. The assay measures conversion of maltose into glucose. Rumen fluid cells are incubated with maltose in the presence of inhibitors, and the amount of glucose produced is assessed using a red colourimetric endpoint. The higher the level of inhibition the lower the glucose produced and the less red colour produced. The plates are read at 450 nm. Main reaction: • Maltose+glucosidase→glucose Glucose assay • Glucose+ATP→[…] and ADP (Hexokinase and Mg^2+) • […] and NADP→6-phosphogluconate (6-PG) and NADPH • NADPH+phenazine methosulfate ([…] (iodonitrotetrazolium chloride)→[…] is deep red coloured. […] The rumen fluid was collected into pre-warmed vacuum flasks. It was then filtered through a double layer of absorbent gauze (Absorbent gauze BP, GAUZ 4 from Robert Bailey plc, Stockport) to remove hay and feed particles. The liquid was centrifuged at a relative centrifugal force of 650 for 15 minutes to remove food particles and protozoa. The supernatant was decanted into fresh tubes and centrifuged at a relative centrifugal force of 23,300 for 60 minutes. The supernatant and the loose top layer of the pellet were discarded. The pellet was resuspended in PBS at 1:8 of original volume i.e. 50 ml of PBS for the pellet from 400 ml of rumen fluid, and frozen at -20° C. When required for use the cells were thawed by standing the tube in cold water, and then diluted to […] of cells/well (45 μl/ml). Test compounds or controls were dispensed into the 96-well assay plate at 2 μl/well, followed by 50 μl per well of 10 mM maltose and 50 μl/well of rumen fluid cell suspension. The plate was incubated at 37° C. for 1 hour. Sigma glucose detection kit […] was reconstituted by addition of 17 ml of Millipore water and 4 ml of colour reagent to each vial. 100 μl of this solution was added per well and the plate returned to the 37° C. incubator for 45 minutes. The plate was then read at 450 nm. Active compounds cause a reduction in the optical density readings when compared to the no-inhibitor control wells.

[2] = system: E. faecalis; assay: Minimum inhibitory concentrations in aerobes (agar dilution)
[3] = system: rumen fluid fermentation (RUSITEC chronic acidosis model); assay: RUSITEC rumen simulation, chronic acidosis model: Example 8 and acarbose; assay type: cell-based, cow
Description: RUSITEC Result using Example 8 and Acarbose
Daily maintenance procedures as previously described for Acarbose.
Rumen fluid donor cow—Fed GH313Pellets plus barley straw.
Daily Feed—30 g GH313 pellets plus 2.5 g chopped barley straw.
Acarbose: 1 tablet added to each bag to give 100 mg/vessel/d
Example 8: Eight×57 mg pre-weighed samples stored in fridge in […]. On the day before the feed bags were to be placed in RUSITEC, a 57 mg sample was dissolved in 2.28 ml buffer (25 mg/ml). 0.21 ml of this solution was added to 1.9 ml buffer to give a 2.5 mg/ml solution. 1 ml of each solution was added to a prepared feed bag to give 25 and 2.5 mg/vessel/d. and dried overnight at room temperature.

[4] = system: lactating cows in which chronic acidosis had been induced; assay: Efficacy of acarbose in lactating dairy cattle (induced chronic acidosis); assay type: in vivo, Holstein/Friesian cows
Description: Efficacy of Acarbose in Lactating Dairy Cattle The study measured the effect of acarbose on rumen pH, milk yield and milk composition in lactating cows in which chronic acidosis had been induced by offering a highly fermentable diet. The study included measurement of rate of adaptation to the introduction and removal of acarbose. Experimental animals were six lactating multiparous Holstein/Friesian cows between 5 and 11 years of age and 500-750 kg, with permanent rumen cannulas. The animals started the experiment in early lactation, but not before peak lactation, to allow greater experimental sensitivity. The principal measurements in this study were pH in the ventral sac of the rumen, milk yield and milk composition. DESIGN: Animals enrolled into the study received test article for 21 consecutive days from the start time points described below. [table] Masking/Bias-Reducing Methods: Six lactating multiparous Holstein/Friesian cows were enrolled on to the study on Day-1. Animals were paired based on their calving date (cows with similar dates paired together). Within each pair, one animal received […] and the other […]. The treatment was assigned at random. […] The mean intake over the last 5 days of the preliminary period was calculated and this mean amount was offered to each animal throughout the trial. […] Fresh weight of TMR offered and refused was recorded daily for each animal. During non-measurement weeks ([…] period and adaptation weeks 1 and 2 in each experimental period), dry matter (DM) of main forage components (grass and maize […] determined approximately weekly (or more frequently if it appears necessary from visual assessment of the silage). For measurement weeks (i.e. week 3 in each experimental period), the DM of the TMR were measured daily for the last 5 days while a bulk of each of the individual TMR components (grass silage, maize silage, concentrate mix, ground wheat) were prepared from the same 5 days for subsequent diet analysis (i.e. one sample of each main feed per period). […]

Structure (SMILES): CC1OC(OC2C(CO)OC(OC3C(CO)OC(O)C(O)C3O)C(O)C2O)C(O)C(O)C1NC1C=C(CO)C(O)C(O)C1O (centres unmarked) [Acarbose, acarbose]
- IC50 [1]: 1080 nM
- MIC ([2]; E. faecalis 1.1.16): >128 µg/mL
- MIC ([2]; E. faecalis 1.1.4): >128 µg/mL
- MIC ([2]; E. faecalis 1.10.4): >128 µg/mL
- MIC ([2]; E. faecalis 1.3.13): >128 µg/mL
- MIC ([2]; E. faecalis 1.4.12): >128 µg/mL
- MIC ([2]; E. faecalis 1.6.6): >128 µg/mL
- MIC ([2]; E. faecalis 1.9.5): >128 µg/mL
- MIC ([2]; E. faecalis 28.5.7): >128 µg/mL
- MIC ([2]; E. faecalis 28.6.9): >128 µg/mL
- MIC ([2]; Enterococcus faecalis): > 128 µg/mL
- increase in mean daily pH ([3]; 0.2 mM): 0.7 units
- proportional increase in butyrate production ([3]; 100 mg per vessel per day, treatment period vs control period (no treatment: 1%)): 113%
- change in total VFA production ([3]; 100 mg per vessel per day, vs preceding control period (no treatment: −11%)): −15%
- proportion of fat in the milk ([4]; treated animals, acarbose 15 g per day (control 32.8 g/L)): 46.1 g/L
- milk fat ([4]; treated animals, acarbose 15 g per day (control average 1033 grams per day)): 1281 grams per day
- average time below pH 5.5 (rumen) ([4]; treatment periods, acarbose 15 g per day in feed supplement (control periods 4.3 hours)): 3.4 hours
